Laboratory results published in patent US8962057B2, “Methods for improving taste and oral care compositions with improved taste” (The Procter & Gamble Company, priority 2009, dated 2015).
Read-outs that look alike come from different tables or passages of the source.

Columns and labels:
[1] = Burning sensation on the standard Scoville hotness scale
[2] = Consumer Test I: panelists brush with dentifrice and rate bothersome and bad aftertaste; type: in vivo, human; details: in dentifrice
Experimental: In order to show the effect of the addition of a TRPV1 activator and/or Vanitrope on the perception of taste in an oral care composition, the following compositions are made and given to consumers to sample.
The base of the control dentifrice (i.e. everything but the flavor) is made via vacuum mixing. The flavor is added in a second step my speed mixing to complete the control. The additional compositions are then made by speed mixing into the control base the TRPV1 activator and/or vanitrope plus flavor at the stated levels. The samples are then placed in tubes and delivered to the testing facility.
At the testing facility, panelists are provided with a generic brush with 1.0 g of toothpaste. Each panelist has an individual sink, mirror, disposable cup and paper towels. They are asked to brush as they normally would at home. Before and after brushing the panelist will answer a series of questions relating to their experience with the toothpaste. The panelists are asked to comment on their experience right after brushing and then at each hour interval for three hours. The comments from the consumers are translated into numerical values for comparison. The results for the above compositions as it related to bothersome and bad aftertaste are shown below.
Also included in the above testing are combinations of TRPV1 activators and/or vanitrope. The formulations for these tests are below and the control is the same as that listed above.

TRPV1 [3] = biological target: T1, TRPV1 (Homo sapiens, UniProt Q8NER1); assay: TRPV1 enhancement, enhancer added after TRPV1 activator capsaicin; type: cell-based
T1 construct: expressed in transfected cells
Experimental: In order to determine whether TRPV1 is activated, the intracellular calcium ion (Ca^+2) levels in TRPV1 receptors is measured. […] (human embryonic kidney) cells stably transfected with human TRPV1 are grown in 15 ml growth medium [high glucose DMEM (Dulbecco's Modification of Eagle's Medium) supplemented with 10% FBS (fetal bovine serum), 100 μg/ml Penicillin/streptomycin, 100 μg/ml G418] in a 75 Cm^2 flask for 3 days at 33° C. in a mammalian cell culture incubator set at 5% CO2. Cells are detached with addition of 10 ml of PBS (phosphate buffered saline) by hand shaking gently. Cells are transferred to a 50 ml tube and centrifuged at 850 rpm for 3 minutes to remove PBS. After centrifugation, a pellet of cells is formed in the bottom of the tube separating them from the supernatant solution. […] Fluo-4 is a fluorescent dye used for quantifying cellular Ca^2+ concentrations in the 100 nM to 1 microM range. At the end of the 30 minutes, 45 ml of assay buffer [1×HBSS (Hank's Balanced Salt Solution), 20 mM HEPES (4-(2-Hydroxyethyl)-1-piperazineethanesulfonic acid)] is added to wash cells and the resulting combination is then centrifuged at 850 rpm for 3 minutes to remove excess buffer and Fluo-4 AM calcium indicator.
[…] […] For determining the direct effect of test compounds on TRPV1, fluorescence is measured immediately after addition of each compound.

TRPV1 [4] = biological target: T1, TRPV1; assay: FLIPR calcium flux assay for TRPV1 activation in transfected HEK cells; type: cell-based
Experimental: The term “TRPV1 activator” as used herein refers to any component which at a concentration of 1 mM gives a calcium flux count of at least 1000 counts above the background level of calcium present in the cell according to the FLIPR method as discussed herein. The term “count” is defined as the change in fluorescence of the transfected cell lines due to the influx of calcium across the cell membrane, which reacts with the calcium sensitive dye present within the cells.
In order to determine whether TRPV1 is activated, the intracellular calcium ion (Ca^+2) levels in TRPV1 receptors is measured. […] (human embryonic kidney) cells stably transfected with human TRPV1 are grown in 15 ml growth medium [high glucose DMEM (Dulbecco's Modification of Eagle's Medium) supplemented with 10% FBS (fetal bovine serum), 100 μg/ml Penicillin/streptomycin, 100 μg/ml G418] in a 75 Cm^2 flask for 3 days at 33° C. in a mammalian cell culture incubator set at 5% CO2. Cells are detached with addition of 10 ml of PBS (phosphate buffered saline) by hand shaking gently. Cells are transferred to a 50 ml tube and centrifuged at 850 rpm for 3 minutes to remove PBS. […] Fluo-4 is a fluorescent dye used for quantifying cellular Ca^2+ concentrations in the 100 nM to 1 microM range. […]
The pellet cells are re-suspended in 10 ml assay buffer and 90 μl aliquots (˜50,000 cells) per well delivered to a 96-well assay plate containing 10 μl of test compounds (1 mM in assay buffer, final concentration 100 μM) or buffer control and incubated at room temperature for 30 minutes. After 30 minutes, the plate is placed into a fluorometric imaging plate reader (FLIPR^384 from Molecular Devices) and basal fluorescence recorded (excitation wave length 488 nm and emission wave length 510 nm). […] Then 20 μl of the molecule being tested as a TRPV1 activator is added and fluorescence recorded. For determining the direct effect of test compounds on TRPV1, fluorescence is measured immediately after addition of each compound. […]

TRPV1 [5] = biological target: T1, TRPV1; assay: TRPV1 enhancement, TRPV1 activator VBE and enhancer added together; type: cell-based; details: VBE 3.5 microMolar
Experimental: In order to determine whether TRPV1 is activated, the intracellular calcium ion (Ca^+2) levels in TRPV1 receptors is measured. […] (human embryonic kidney) cells stably transfected with human TRPV1 are grown in 15 ml growth medium [high glucose DMEM (Dulbecco's Modification of Eagle's Medium) supplemented with 10% FBS (fetal bovine serum), 100 μg/ml Penicillin/streptomycin, 100 μg/ml G418] in a 75 Cm^2 flask for 3 days at 33° C. in a mammalian cell culture incubator set at 5% CO2. Cells are detached with addition of 10 ml of PBS (phosphate buffered saline) by hand shaking gently. Cells are transferred to a 50 ml tube and centrifuged at 850 rpm for 3 minutes to remove PBS. After centrifugation, a pellet of cells is formed in the bottom of the tube separating them from the supernatant solution. The supernatant is discarded and the cell pellet is suspended in 1 ml of fresh growth medium to which 5 μl (12.5 μg) of Fluo-4 AM (Molecular Probes, Inc.) calcium indicator is added and incubated for 30 min with gentle shaking. Fluo-4 is a fluorescent dye used for quantifying cellular Ca^2+ concentrations in the 100 nM to 1 microM range. At the end of the 30 minutes, 45 ml of assay buffer [1×HBSS (Hank's Balanced Salt Solution), 20 mM HEPES (4-(2-Hydroxyethyl)-1-piperazineethanesulfonic acid)] is added to wash cells and the resulting combination is then centrifuged at 850 rpm for 3 minutes to remove excess buffer and Fluo-4 AM calcium indicator.
The pellet cells are re-suspended in 10 ml assay buffer and 90 μl aliquots (˜50,000 cells) per well delivered to a 96-well assay plate containing 10 μl of test compounds (1 mM in assay buffer, final concentration 100 μM) or buffer control and incubated at room temperature for 30 minutes. After 30 minutes, the plate is placed into a fluorometric imaging plate reader (FLIPR^384 from Molecular Devices) and basal fluorescence recorded (excitation wave length 488 nm and emission wave length 510 nm). The FLIPR assay is an accepted method for detecting changes in intracellular calcium concentration. Then 20 μl of the molecule being tested as a TRPV1 activator is added and fluorescence recorded. For determining the direct effect of test compounds on TRPV1, fluorescence is measured immediately after addition of each compound. Additional discussion of the FLIPR method can be found in Smart et al., Characterization using FLIPR of human vanilloid VR1 receptor pharmacology, European Journal of Pharmacology 417, 51-58 (2001) and Liu et al., Development and validation of a platelet calcium flux assay using a fluorescent imaging plate reader, Analytical Biochemistry 357, 216-224 (2006).
In a separate test, the TRPV1 activator (VBE) and the enhancer are added together. […] See the chart below.

[6] = both bothersome and bad aftertaste, each of hours 1-3

T1 sequence (Q8NER1 whole entry): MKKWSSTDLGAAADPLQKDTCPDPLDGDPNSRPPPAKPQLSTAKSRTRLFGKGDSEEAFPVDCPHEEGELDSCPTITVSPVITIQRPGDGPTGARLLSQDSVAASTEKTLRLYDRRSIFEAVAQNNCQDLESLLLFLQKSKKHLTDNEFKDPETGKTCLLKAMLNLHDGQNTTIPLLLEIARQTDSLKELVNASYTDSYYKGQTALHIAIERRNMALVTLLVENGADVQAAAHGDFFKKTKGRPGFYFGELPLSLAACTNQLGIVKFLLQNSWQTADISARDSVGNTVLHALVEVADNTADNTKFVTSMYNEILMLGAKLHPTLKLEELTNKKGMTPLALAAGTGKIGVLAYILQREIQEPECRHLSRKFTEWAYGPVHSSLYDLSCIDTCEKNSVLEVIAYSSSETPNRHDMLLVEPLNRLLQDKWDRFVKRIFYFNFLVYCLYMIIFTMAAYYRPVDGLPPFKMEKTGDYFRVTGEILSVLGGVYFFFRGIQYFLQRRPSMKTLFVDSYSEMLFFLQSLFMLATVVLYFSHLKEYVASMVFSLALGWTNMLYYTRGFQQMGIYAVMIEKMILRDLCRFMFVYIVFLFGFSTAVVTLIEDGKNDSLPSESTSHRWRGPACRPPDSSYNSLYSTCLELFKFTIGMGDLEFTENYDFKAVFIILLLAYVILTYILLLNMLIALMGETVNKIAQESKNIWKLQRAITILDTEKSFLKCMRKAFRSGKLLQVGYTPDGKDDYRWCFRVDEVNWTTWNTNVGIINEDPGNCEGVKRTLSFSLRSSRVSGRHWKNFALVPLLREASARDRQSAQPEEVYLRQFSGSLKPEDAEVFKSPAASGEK

## COc1cc(CCC(C)=O)ccc1O [Zingerone]
[1]; burning sensation
  'Hotness' (as log Scoville Units): <4.0 log Scoville Units
[2]; [6]
  taste versus control: improved taste over the control

## C/C=C/C(=O)C1C(C)C=CCC1(C)C (centres unmarked) [delta-damascone]
TRPV1 [3]
  % Enhancement: 28.53%

## COc1cc(CNC(=O)CCCCCCCC(C)C)ccc1O [HomodihydroCapsaicin]
[1]
  'Hotness' (as log Scoville Units): 6.9 log Scoville Units

## C=C(OCC)C1C(C)(C)CC(=O)CC1(C)C [Kephalis]
TRPV1 [3]
  % Enhancement: 13.74%

## CCCCC[C@H](O)CC(=O)CCc1ccc(O)c(OC)c1 [6-Gingerol]
[1]; burning sensation
  'Hotness' (as log Scoville Units): 4.9 log Scoville Units

## O=P([O-])([O-])OP(=O)([O-])[O-].[Na+].[Na+].[Na+].[Na+] [Tetrasodium Pyrophosphate]
TRPV1 [3]
  % Enhancement: 15.62%

## COc1cc(CNC(=O)CCCC/C=C/C(C)C)ccc1O [Capsaicin, reference compound]
TRPV1 [4]; concentration of 300 nM
  activation level (calcium flux): about 14127.16 calcium ions
[1]; burning sensation
  'Hotness' (as log Scoville Units): 7.2 log Scoville Units

## Farnesene
TRPV1 [5]; enhancer level 50 microMolar
  Percent Enhancement when combined with 3.5 microMolar VBE: 25%
TRPV1 [5]; enhancer level 100 microMolar
  Percent Enhancement when combined with 3.5 microMolar VBE: 100%
TRPV1 [5]; enhancer level 200 microMolar
  Percent Enhancement when combined with 3.5 microMolar VBE: 175%
TRPV1 [5]; enhancer level 1000 microMolar
  Percent Enhancement when combined with 3.5 microMolar VBE: 400%
TRPV1 [3]
  % Enhancement: 12.33%

## C=CCS[S+]([O-])CC=C (centres unmarked) [Allicin]
[1]; burning sensation
  'Hotness' (as log Scoville Units): 4.0 log Scoville Units

## COc1cc(CNC(=O)CCCCC/C=C/C(C)C)ccc1O [HomoCapsaicin]
[1]
  'Hotness' (as log Scoville Units): 6.9 log Scoville Units

## CCCCCCCO [Heptyl Alcohol]
TRPV1 [3]
  % Enhancement: 10.16%

## CC(=O)/C=C/C1C(C)=CCCC1(C)C (stereo not drawn) [Alpha-Ionone]
TRPV1 [3]
  % Enhancement: 18.84%

## C/C=C\C(=O)C1C(C)=CCCC1(C)C (stereo not drawn) [Alpha-Damascone]
TRPV1 [3]
  % Enhancement: 28.1%

## CC(=O)OC(C)(C)Cc1ccccc1 [Alpha, Alpha Dimethylphenethyl Acetate]
TRPV1 [5]; enhancer level 50 microMolar
  Percent Enhancement when combined with 3.5 microMolar VBE: 300%
TRPV1 [5]; enhancer level 100 microMolar
  Percent Enhancement when combined with 3.5 microMolar VBE: 310%
TRPV1 [5]; enhancer level 200 microMolar
  Percent Enhancement when combined with 3.5 microMolar VBE: 410%
TRPV1 [5]; enhancer level 1000 microMolar
  Percent Enhancement when combined with 3.5 microMolar VBE: 420%
TRPV1 [3]
  % Enhancement: 14.64%

## CCCCOCc1ccc(O)c(OC)c1 [Vanillyl Butyl Ether]
TRPV1 [4]; concentration of 1 mM
  activation level (calcium flux): approximately 14942.84 calcium ions
[1]; burning sensation
  'Hotness' (as log Scoville Units): 5.7 log Scoville Units
[2]; [6]
  taste versus control: improved taste over the control

## C/C=C/c1ccc(OCC)c(O)c1 [vanitrope]
TRPV1 [4]
  direct activation of TRPV1 (TRPV1 activator or not): not considered to be a TRPV1 activator
[2]; hours 1-3 for bothersome and hours 1-2 for bad aftertaste
  taste versus control: taste improvement

## COc1cc(CNC(=O)CCCCCC(C)C)ccc1O [NorhydroCapsaicin]
[1]
  'Hotness' (as log Scoville Units): 7.0 log Scoville Units

## C=C(C)C1CC=C(C)C(OC(C)=O)C1 (centres unmarked) [carvyl acetate]
TRPV1 [3]
  % Enhancement: 12.83%

## CCCCCCC(C)=O [2-Octanone]
TRPV1 [3]
  % Enhancement: 19.87%

## O=Cc1ccco1 [Furfural]
TRPV1 [3]
  % Enhancement: 19.29%

## CCCCC/C=C/C(=O)CCc1ccc(O)c(OC)c1 [6-Shoagol]
[1]; burning sensation
  'Hotness' (as log Scoville Units): 5.1 log Scoville Units

## COC(Cc1ccccc1)OC [Phenylacetaldehyde Dimethyl Acetal]
TRPV1 [3]
  % Enhancement: 14.07%

## CCC/C=C/COC(C)=O [Trans-2-Hexenyl Acetate]
TRPV1 [3]
  % Enhancement: 10.62%

## CCCC(=O)OC/C=C(\C)CCC=C(C)C [Geranyl Butyrate]
TRPV1 [3]
  % Enhancement: 23.46%

## CC(C)=CCCC(C)C=O (centres unmarked) [2,6-Dimethyl-5-Heptenal]
TRPV1 [3]
  % Enhancement: 17.5%
